Results reported in patent publication US20090123536A1, “Oral Pharmaceutical Form of Losartan” (Flamel Technologies, S.A., priority 2005, published 2009).
Converted amounts (≈) assume the structure as drawn.

Assay: Solubility of losartan as a function of pH
Assay type: physicochemical
Settings: water
Text: It is thus conceived that for losartan, whose solubility depends greatly on the gastric pH (cf. table below), the solubilization, and thus ultimately the plasmatic concentration profile, is subject to great variation from one individual to another and, for the same individual, from one day to another.

solubility (aqueous buffer, pH 3.0, 37° C.): 100 µg/mL (≈ 0.236 mM) | solubility (aqueous buffer, pH 4.5, 37° C.): 120 µg/mL (≈ 0.284 mM) | solubility (aqueous buffer, pH 5.0, 37° C.): 300 µg/mL (≈ 0.709 mM) | solubility (aqueous buffer, pH 6.0, 37° C.): 1200 µg/mL (≈ 2.84 mM) | solubility (aqueous buffer, pH 6.8, 37° C.): 10000 µg/mL (≈ 23.6 mM) | solubility (aqueous buffer, pH 8.5, 37° C.): > 550000 µg/mL | solubility (simulated gastric fluid, pH 1.4, 37° C.): 1000 µg/mL (≈ 2.36 mM) | solubility (simulated gastric fluid, pH 2.0, 37° C.): 600 µg/mL (≈ 1.42 mM)
Structure (SMILES): CCCCc1nc(Cl)c(CO)n1Cc1ccc(-c2ccccc2-c2nn[nH]n2)cc1 [losartan, {2-butyl-4-chloro-1-[4-[2-(1H-tetrazol-5-yl)phenyl]benzyl]-1H-imidazol-5-yl}methanol]
